Ends that are not written are not given here.
Tests used:
[1] = tested on: KISS1R in HCT116 cells; test: KISS1R expression by immunofluorescence after Decitabine pre-incubation; type: cell-based, human; details: HCT116 pre-incubated 72 h with 5 µM Decitabine versus untreated
Procedure: Cells were seeded in 24-well plates on microscope cover glasses (VWR, Ismaning, Germany). After fixation/permeabilization, cells were incubated overnight with anti-KISS1R antibody (abcam, Berlin, Germany) or without primary antibody (negative control) and then stained with Alexa-Fluor®-488 conjugated secondary antibody (abcam, Berlin, Germany). The nucleus was counterstained with 4′,6-Diamidin-2-phenylindol (DAPI) (Sigma-Aldrich, Deisenhofen, Germany). Fluorescence images were taken on an Axio Scope.A1 fluorescence microscope equipped with a camera and the ZEN2 (blue edition)-Software, version 2.0.0.0 (Zeiss, Jena, Germany). Fluorescence canals were merged using the software FIJI (Image J, version 1.53t).
Cells were seeded in 24-well plates, and 1 h before [^68Ga]KISS1-54 uptake, the cell culture medium was replaced by PBS/5% BSA. Cells were incubated at 37 °C with [^68Ga]KISS1-54 for 5–90 min or co-incubated for 60 min with [^68Ga]KISS1-54 and KISS1-54 (Sigma Aldrich, Deisenhofen, Germany). After incubation, cells were washed three times with ice-cold PBS/5% BSA and harvested. Radioactivity was measured with a gamma-counter (Wizard 2480, Perkin-Elmer, Rodgau, Germany), and cells were subsequently counted with Countess 3 (Thermo Fisher Scientific, Waltham, MA, USA). […]

[2] = tested on: LNCap tumor xenograft; type: in vivo, CD1 nu/nu mice
Procedure: (§1) The animal studies were conducted according to the principles and procedures outlined in the Guide for the Care and Use of Laboratory Animals and were in line with the Animal Welfare Act and the directive 2010/63/EU. All mice (CD1-Foxn1nu) were purchased from Charles River (Sulzfeld, Germany) and held in the animal facility of the University Hospital of Würzburg. After their arrival, they had at least a week to get used to their new environment in the animal facility.
(§2) Then, 5 × 10^6 MDA-MB-231-cells in PBS and 5 × 10^6 LNCap cells in Matrigel Matrix® without phenol-red (Corning Life Sciences B.V., Amsterdam, The Netherlands), respectively, were inoculated subcutaneously into the front flank of eight-week-old mice. After implantation, the animals were examined and monitored daily for tumor size and well-being.
(§3) After the tumor reached a size of ≥0.5 cm in diameter, micro-PET scans were started.
(§4) For tracer injection, and during the micro-PET scans, mice were kept under 1.5% isoflurane anesthesia in 100% oxygen. Body temperature was maintained at a physiological level by using heating pads throughout the whole examination period.
(§5) Then, 3.0 ± 0.9 MBq of freshly prepared [^68Ga]KISS1-54 was injected intravenously (i.v.) into the tail vein. The first animals were scanned over 80 min directly after tracer injection to find out the optimal time point for PET acquisition. […] Therefore, data acquisition for all further mice started 60 min p.i. over 20 min.
(§6) Each acquired set of data was sorted with Fourier rebinning (FORE) to a 2D dataset of sinograms, which were reconstructed with the OSEM2D reconstruction algorithm. The software AMIDE Medical Image Data Examiner (Version 1.0.4) was used to quantify the radioactivity uptake in various regions of interest (ROIs). For the semi-quantitative analysis of the PET images, spherical ROIs were defined and used. For quantification, tumor-to-muscle, tumor-to-liver, and tumor-to-lung ratios (maximal tumor uptake/mean organ uptake) were calculated.

[3] = tested on: MDA-MB-231 tumor xenograft; type: in vivo, CD1 nu/nu mice
Procedure: as §1, §2, §3, §4, §5, §6

[4] = Stability in injection solution by radio-HPLC; type: physicochemical; details: 3 h after preparation (EOS), diluted in PBS, room temperature, C18
Procedure: The radiochemical purity of [^68Ga]KISS1-54 was determined via high-performance liquid chromatography (HPLC). A linear gradient started from 100% H2O (0.1% TFA) to 100% acetonitrile (0.1% TFA) over 10 min, with a flow rate of 0.7 mL/min, using a Nucleosil column (100-5 C18 125 × 4.6 mm) (CS-Chromatographie, Langerwehe, Germany) and HPLC system (Knauer, Berlin, Germany). For the determination of the in vitro stability, the [^68Ga]KISS1-54 solution was diluted in phosphate-buffered saline (PBS) and stored at room temperature, and the HPLC runs were repeated 1 h and 3 h after the end of synthesis.

[5] = type: in vitro ADME, human
Procedure: For the determination of the […] stability, [^68Ga]KISS1-54 was incubated in fresh human serum at 37 °C for 3 h. After 0.5 h, 1 h, 2 h, and 3 h, adequate samples were taken, purified, and analyzed via HPLC under the conditions described above. […] The measured radioactivity (counts per minute) for each fraction was plotted versus time in a graph.

[6] = tested on: LNCap cells; test: In vitro cell uptake, LNCap; type: cell-based, human; details: 60 min co-incubation with nonradioactive KISS1-54, 1,000-fold, p = 0.047
Procedure: (§7) Cells were seeded in 24-well plates, and 1 h before [^68Ga]KISS1-54 uptake, the cell culture medium was replaced by PBS/5% BSA. Cells were incubated at 37 °C with [^68Ga]KISS1-54 for 5–90 min or co-incubated for 60 min with [^68Ga]KISS1-54 and KISS1-54 (Sigma Aldrich, Deisenhofen, Germany). After incubation, cells were washed three times with ice-cold PBS/5% BSA and harvested. Radioactivity was measured with a gamma-counter (Wizard 2480, Perkin-Elmer, Rodgau, Germany), and cells were subsequently counted with Countess 3 (Thermo Fisher Scientific, Waltham, MA, USA). In the case of treatment with 5-Aza-2′-Deoxycytidine (Decitabine (DC)), cells were preincubated for 72 h in cell culture medium containing 5 µM Decitabine (Merck Millipore, Darmstadt, Germany). For data analysis, the determined accumulation of [^68Ga]KISS1-54 in vitro was standardized as “uptake/100,000 cells” for a better comparison. For example, the cell number differed between pretreatment with and without Decitabine, which is due to the treatment itself, making standardization necessary.

[7] = tested on: HepG2 cells; test: In vitro cell uptake, HepG2; type: cell-based, human; details: 60 min co-incubation with nonradioactive KISS1-54, 1,000-fold, p = 0.02
Procedure: as §7

[8] = tested on: MCF-7 cells; test: In vitro cell uptake, MCF-7; type: cell-based, human; details: 60 min co-incubation with nonradioactive KISS1-54, 1,000-fold, p = 0.004
Procedure: as §7

[9] = tested on: HCT116 cells; test: In vitro cell uptake, HCT116; type: cell-based, human
Procedure: as §7

[10] = tested on: HeLa cells; test: In vitro cell uptake, HeLa; type: cell-based, human; details: 60 min co-incubation with nonradioactive KISS1-54, 1,000-fold, p < 0.001
Procedure: as §7

[11] = tested on: SK-BR-3 cells; test: In vitro cell uptake, SK-BR-3; type: cell-based, human; details: 60 min co-incubation with nonradioactive KISS1-54, 1,000-fold, p = 0.02
Procedure: as §7

[12] = tested on: MDA-MB-231 cells; test: In vitro cell uptake, MDA-MB-231; type: cell-based, human; details: 60 min co-incubation with nonradioactive KISS1-54, 1,000-fold, not significant, p = 0.08
Procedure: as §7

[13] = in vivo; design: species or system CD1 nu/nu mice; details: mouse, iv; for tissue uptake at 1 h: CD1-Foxn1nu (CD1 nu/nu), total radioactivity
Procedure: as §1, §2, §3, §4, §5, §6

[14] = target: KISS1 receptor (KISS1R or GPR54); details: affinity for KISS1R; ref [1],[2]; cited from earlier work
Procedure: Kisspeptins (KPs) summarize the family of KISS1 peptides, which bind at the KISS1 receptor (KISS1R or GPR54) with high affinity. Among the KPs, KISS1-54 is the best characterized representative (Ki 1.45 ± 0.1 nM for KISS1-54). The Kiss1 gene was first identified as a metastasis suppressor gene in melanoma, which suppresses metastasis without affecting the formation of primary tumor [3]. Since then, Kisspeptin was also identified in pancreatic, lung, breast, ovarian, gastric, colon, bladder, esophageal, and small intestine cancer.

Molecule: Nc1ncn([C@H]2C[C@H](O)[C@@H](CO)O2)c(=O)n1 [Decitabine, 5-Aza-2′-Deoxycytidine]
- KISS1R level by immunofluorescence [1]: increase in the KISS1R level

Molecule: O=C[C@H]([18F])[C@@H](O)[C@H](O)[C@H](O)CO [[^18F]FDG, 2-[^18F]fluoro-2-deoxyglucose, reference compound]
- tumor uptake in control PET (tumor vitality) ([2]; LNCap tumor, scan the day before [^68Ga]KISS1-54): clear FDG uptake
- tumor uptake in control PET (tumor vitality) ([3]; MDA-MB-231 tumor, scan the day before [^68Ga]KISS1-54): clear FDG uptake

Molecule: CC[C@H](C)[C@H](NC(=O)[C@H](CCC(N)=O)NC(=O)[C@H](CCCNC(=N)N)NC(=O)[C@H](CO)NC(=O)[C@H](Cc1c[nH]cn1)NC(=O)[C@@H]1CCCN1C(=O)[C@H](C)NC(=O)[C@H](CO)NC(=O)[C@H](CC(C)C)NC(=O)CNC(=O)[C@@H]1CCCN1C(=O)[C@H](CCC(N)=O)NC(=O)[C@H](CCC(N)=O)NC(=O)[C@H](CCCNC(=N)N)NC(=O)[C@H](CO)NC(=O)CNC(=O)[C@H](CO)NC(=O)[C@H](CO)NC(=O)[C@H](CCC(=O)O)NC(=O)[C@@H]1CCCN1C(=O)[C@@H]1CCCN1C(=O)[C@@H]1CCCN1C(=O)[C@H](CO)NC(=O)[C@H](CC(C)C)NC(=O)[C@H](CO)NC(=O)[C@@H](NC(=O)CNC(=O)CCC(C(=O)O)N1CCN(CC(=O)O)CCN(CC(=O)O)CC1)[C@@H](C)O)C(=O)N1CCC[C@H]1C(=O)N[C@@H](C)C(=O)N1CCC[C@H]1C(=O)N[C@@H](CCC(N)=O)C(=O)NCC(=O)N[C@@H](C)C(=O)N[C@H](C(=O)N[C@@H](CC(C)C)C(=O)N[C@H](C(=O)N[C@@H](CCC(N)=O)C(=O)N[C@@H](CCCNC(=N)N)C(=O)N[C@@H](CCC(=O)O)C(=O)N[C@@H](CCCCN)C(=O)N[C@@H](CC(=O)O)C(=O)N[C@@H](CC(C)C)C(=O)N1CCC[C@H]1C(=O)N[C@@H](CC(N)=O)C(=O)N[C@@H](Cc1ccc(O)cc1)C(=O)N[C@@H](CC(N)=O)C(=O)N[C@@H](Cc1c[nH]c2ccccc12)C(=O)N[C@@H](CC(N)=O)C(=O)N[C@@H](CO)C(=O)N[C@@H](Cc1ccccc1)C(=O)NCC(=O)N[C@@H](CC(C)C)C(=O)N[C@@H](CCCNC(=N)N)C(=O)N[C@@H](Cc1ccccc1)C(N)=O)C(C)C)C(C)C (some centres unmarked) [[^68Ga]KISS1-54, metal not drawn]
- radiochemical purity in injection solution [4]: > 99%
- radiochemical purity after incubation in human serum, 1 h [5]: 98.0%
- uptake with KISS1-54 co-incubation, relative to control without blocking [6]: 50%
- uptake with KISS1-54 co-incubation, relative to control without blocking [7]: 46%
- uptake with KISS1-54 co-incubation, relative to control without blocking [8]: 47%
- increased uptake after Decitabine treatment, with KISS1-54 co-incubation ([9]; DC-treated HCT116, 60 min co-incubation with KISS1-54): could be blocked
- uptake in Decitabine-pre-incubated HCT116 versus untreated cells ([9]; HCT116, 72 h pre-incubation with 5 µM Decitabine): significantly increased
- uptake with KISS1-54 co-incubation, relative to control without blocking ([9]; HCT116, 60 min co-incubation with nonradioactive KISS1-54, 1,000-fold, not significant, p = 0.07): 76%
- uptake with KISS1-54 co-incubation, relative to control without blocking [10]: 40%
- uptake with KISS1-54 co-incubation, relative to control without blocking [11]: 46%
- uptake with KISS1-54 co-incubation, relative to control without blocking [12]: 65%
- tumor uptake ([2]; LNCap tumor, 60 min p.i., i.v., µ-PET, mean ± SD, n = 8): 0.9 ± 0.3 % ID/g
- tumor visualisation in PET ([2]; LNCap xenograft, n = 8, visual inspection): clearly delineated from the surrounding tissue
- reduction of tumor uptake by co-injection of KISS1-54 ([2]; LNCap-bearing mice, nonradioactive KISS1-54 in 100-fold excess): 26 ± 5%
- tumor-to-muscle ratio ([2]; LNCap, maximal tumor uptake/mean organ uptake, 60 min p.i.): 2.0 ± 0.3
- tumor-to-muscle ratio ([3]; MDA-MB-231, maximal tumor uptake/mean organ uptake, 60 min p.i.): 1.4 ± 0.4
- tumor uptake ([3]; MDA-MB-231 tumor, 60 min p.i., i.v., µ-PET, mean ± SD, n = 10): 0.7 ± 0.3 % ID/g
- tumor visualisation in PET ([3]; MDA-MB-231 tumor, n = 10, visual inspection): no significant uptake
- tissue uptake at 1 h ([13]; tracer accumulation in brain): ~0.2 %ID/g
- tissue uptake at 1 h ([13]; tracer accumulation in liver): ~0.8 %ID/g
- tissue uptake at 1 h ([13]; tracer accumulation in muscle): ~0.5 %ID/g
- clearance [13]: rapid renal tracer clearance during the first few minutes

Molecule: KISS1-54: KISS1 peptide with 54 amino acids; nonradioactive blocking agent (GTSLSPPPESSGSPQQPGLSAPHSRQIPAPQGAVLVQREKDLPNYNWNSFGLRF; ends and bridges not checked; UniProt Q15726 68-121, looked up)
- Ki [14]: 1.45 ± 0.1 nM

— paper PMC10821118, “Gallium-68-Labeled KISS1-54 Peptide for Mapping KISS1 Receptor via PET: Initial Evaluation in Human Tumor Cell Lines and in Tumor-Bearing Mice” (Pharmaceuticals, 2023)
